We go through four compounds from publication PMC10830635, “In vitro cytotoxicity of Withania somnifera (L.) roots and fruits on oral squamous cell carcinoma cell lines: a study supported by flow cytometry, spectral, and computational investigations” (Frontiers in Pharmacology, 2024).

Series [1] deals with Ca9-22 cells. Description: Cell cycle analysis (PI staining, cell sorter) and cell morphology. Type of series: cell-based, human. The settings on record: Ca9-22, 20 h, 1 µM.
Experimental: The changes in cell morphology were detected using light microscopy (EVOSfl; ThermoFisher Scientific, Waltham, MA, United States).
Ca9-22 cells (3 × 10^4/mL, 10 mL) were added to a 10-cm dish and allowed to fully attach to the dish over the course of 48 h of incubation. […] These cells were mixed and then washed once with PBS (−). Both cell groups were fixed for 1 h on ice with 1% paraformaldehyde. Fixed cells were then washed twice with PBS (−) and treated with 400 μL of 200 μg/mL RNase A (which was preheated for 10 min at 100°C to inactivate DNase) to degrade RNA. The cells were then washed twice with PBS (−) and stained for 15 min with 0.01% propidium iodide (PI) in the presence of 0.01% NP-40 in PBS (−) to prevent cell aggregation. After filtering through Falcon® cell strainers (nylon mesh, pore size: 40 μm) (Corning, NY, United States) to remove aggregated cells, PI-stained cells were then subjected to cell sorting using (SH800 Series; SONY Imaging Products and Solutions Inc., Kanagawa, Japan), and finally analyzed with the Cell Sorter Software version 2.1.2.
In series [2] the test system is HSC-2 (human squamous carcinoma, derived from tongue). Briefly: MTT cytotoxicity assay, HSC-2. Type of series: cell-based. The settings on record: HSC-2, 48 h, read-out: CC50 HSC-2.
Experimental: (§1) The cancer cell lines (HSC-2, HSC-3, HSC-4), as well as the normal cells (HGF, HPLF, and HPC), were cultured at 37°C in a humidified 5% CO2 incubator in DMEM medium enriched with streptomycin sulphate (100 μg/mL), 10% heat-inactivated FBS, and penicillin G (100 units/mL). For cytotoxicity testing, cells were then garnered using 0.25% trypsin–0.025% sodium edetate in a phosphate-buffered saline lacking Ca^2+/Mg^2+ [PBS (−)]. The cells were cultured in 96-well microplates at a cell count of 3 ×10^3 cells/100 μL. After 2 days, the exhausted medium was replaced with fresh medium containing the different concentrations of sample to be tested, in triplicate. The initial sample concentration was set at 5 mg/mL in DMSO. The first concentration examined was thus 500 μg/mL, which was then successively diluted 2-fold. In the wells assigned for control, equal volumes of the DMSO were added to the cells, where the toxic effects of DMSO could be subtracted. The cell growth in the incubator was continued for another 2 days. To determine the cell viability, the colorimetric MTT method was employed as described in our preceding article ([Orabi et al., 2021]). The concentration of cytotoxicity 50% (CC50) was determined from the dose-response curve. The mean CC50 value for each type of cell was calculated from triplicate assays ([Kantoh et al., 2010]).
Series [3] has as its system HSC-3 (human squamous carcinoma, derived from tongue). Briefly: MTT cytotoxicity assay, HSC-3. The settings on record: HSC-3, 48 h, read-out: CC50 HSC-3. The series is classed as cell-based. On the technique in general: Formazan colour is commonly taken as a measure of viable cells.
Experimental: as §1
For series [4], the system named is HSC-4 (human squamous carcinoma, derived from tongue). Description: MTT cytotoxicity assay, HSC-4. To be noted: HSC-4, 48 h, read-out: CC50 HSC-4. The series is classed as cell-based.
Experimental: as §1
Series [5] is described as follows: MTT cytotoxicity assay, HGF. To be noted: human, normal gingival fibroblasts (HGF), normal cells, 2 days exposure. Type of series: cell-based.
Experimental: as §1
Series [6] in a line: MTT cytotoxicity assay, HPLF. Type of series: cell-based. The settings on record: human, normal periodontal ligament fibroblasts (HPLF), normal cells, 2 days exposure.
Experimental: as §1
Series [7] is described as follows: MTT cytotoxicity assay, HPC. Type of series: cell-based. The settings on record: human, normal pulp cells (HPC), 2 days exposure.
Experimental: For cytotoxicity testing, cells were then garnered using 0.25% trypsin–0.025% sodium edetate in a phosphate-buffered saline lacking Ca^2+/Mg^2+ [PBS (−)]. The cells were cultured in 96-well microplates at a cell count of 3 ×10^3 cells/100 μL. After 2 days, the exhausted medium was replaced with fresh medium containing the different concentrations of sample to be tested, in triplicate. The initial sample concentration was set at 5 mg/mL in DMSO. The first concentration examined was thus 500 μg/mL, which was then successively diluted 2-fold. In the wells assigned for control, equal volumes of the DMSO were added to the cells, where the toxic effects of DMSO could be subtracted. The cell growth in the incubator was continued for another 2 days. To determine the cell viability, the colorimetric MTT method was employed as described in our preceding article ([Orabi et al., 2021]). The concentration of cytotoxicity 50% (CC50) was determined from the dose-response curve. The mean CC50 value for each type of cell was calculated from triplicate assays ([Kantoh et al., 2010]). The changes in cell morphology were detected using light microscopy (EVOSfl; ThermoFisher Scientific, Waltham, MA, United States).
Series [8] is described as follows: MTT cytotoxicity assay, normal oral cells together (mean). To be noted: human; mean of HGF, HPLF, HPC; read-out: CC50 Mean (D), human normal oral cells. Type of series: cell-based.
Experimental: The cancer cell lines (HSC-2, HSC-3, HSC-4), as well as the normal cells (HGF, HPLF, and HPC), were cultured at 37°C in a humidified 5% CO2 incubator in DMEM medium enriched with streptomycin sulphate (100 μg/mL), 10% heat-inactivated FBS, and penicillin G (100 units/mL). For cytotoxicity testing, cells were then garnered using 0.25% trypsin–0.025% sodium edetate in a phosphate-buffered saline lacking Ca^2+/Mg^2+ [PBS (−)]. The cells were cultured in 96-well microplates at a cell count of 3 ×10^3 cells/100 μL. After 2 days, the exhausted medium was replaced with fresh medium containing the different concentrations of sample to be tested, in triplicate. The initial sample concentration was set at 5 mg/mL in DMSO. The first concentration examined was thus 500 μg/mL, which was then successively diluted 2-fold. In the wells assigned for control, equal volumes of the DMSO were added to the cells, where the toxic effects of DMSO could be subtracted. The cell growth in the incubator was continued for another 2 days. […] The concentration of cytotoxicity 50% (CC50) was determined from the dose-response curve.
In series [9] the test system is Ca9-22 (human gingival squamous carcinoma cell line). Description: MTT cytotoxicity assay, Ca9-22. To be noted: for CC50: Homo sapiens, Ca9-22, 48 h, read-out: CC50 Ca9-22 (A).
Experimental: (§2) The cancer cell lines (HSC-2, HSC-3, HSC-4), as well as the normal cells (HGF, HPLF, and HPC), were cultured at 37°C in a humidified 5% CO2 incubator in DMEM medium enriched with streptomycin sulphate (100 μg/mL), 10% heat-inactivated FBS, and penicillin G (100 units/mL). For cytotoxicity testing, cells were then garnered using 0.25% trypsin–0.025% sodium edetate in a phosphate-buffered saline lacking Ca^2+/Mg^2+ [PBS (−)]. The cells were cultured in 96-well microplates at a cell count of 3 ×10^3 cells/100 μL. After 2 days, the exhausted medium was replaced with fresh medium containing the different concentrations of sample to be tested, in triplicate. The initial sample concentration was set at 5 mg/mL in DMSO. The first concentration examined was thus 500 μg/mL, which was then successively diluted 2-fold. In the wells assigned for control, equal volumes of the DMSO were added to the cells, where the toxic effects of DMSO could be subtracted. The cell growth in the incubator was continued for another 2 days. […] The concentration of cytotoxicity 50% (CC50) was determined from the dose-response curve. […] The changes in cell morphology were detected using light microscopy (EVOSfl; ThermoFisher Scientific, Waltham, MA, United States).
(§3) The following equation was used to calculate tumor specificity (TS): TS = average CC50 toward the normal cells (HGF + HPLF + HPC)/average CC50 toward the tumor cell lines (Ca9-22 + HSC-2 + HSC-3 + HSC-4), as indicated by D/B (Table 1). To compare the sensitivity of the cancer cells (Ca9-22) with that of the normal cells (HGF), being generated from the same tissue, the equation TS = CC50 against HGF/CC50 against Ca9-22 was used (see C/A in Table 1).
Series [10] deals with OSCC cell lines (Ca9-22 + HSC-2 + HSC-3 + HSC-4). Description: MTT cytotoxicity assay, OSCC cell lines together (mean, TS, PSE). The settings on record: for CC50: Homo sapiens, read-out: CC50 Mean (B), human oral squamous cell carcinoma cell lines; for Type of growth inhibition (cytotoxic or cytostatic) from dose-response curve: OSCC cell lines and normal oral cells, Figure 1.
Experimental: as §2, §3

Where two headings read alike, the source gives them in different places. *1 amine or outer side, *2 acyl side, *3 side chain or, on linkers, in order; H or OH if unused. Where a SMILES comes first, the peptide text is derived from it. Bridges are numbered along the chain shown (N, C = ends). Roman numbers before positions name the chains, in order. [ ]: non-standard residue; d: D form. Actinocin(9to1) = Cc1c2oc3c(C)ccc(C(=O)[*:1])c3nc-2c(C(=O)[*:2])c(N)c1=O; NMeV = CN[C@H](C(=O)O)C(C)C; Sar = CNCC(=O)O

As for `Cc1c2oc3c(C)ccc(C(=O)N[C@@H]4C(=O)N[C@H](C(C)C)C(=O)N5CCC[C@H]5C(=O)N(C)CC(=O)N(C)[C@@H](C(C)C)C(=O)O[C@@H]4C)c3nc-2c(C(=O)N[C@@H]2C(=O)N[C@H](C(C)C)C(=O)N3CCC[C@H]3C(=O)N(C)CC(=O)N(C)[C@@H](C(C)C)C(=O)O[C@@H]2C)c(N)c1=O` [Act.D, actinomycin D] (I: T[dV]P[Sar][NMeV] / II: T[dV]P[Sar][NMeV]; ester I:1-I:C, II:1-II:C; linker I:N-II:N via Actinocin(9to1)), the “Morphological change of cells” value in series [1] was “cell shrinkage”.
With `N[C@@H](Cc1ccc(N(CCCl)CCCl)cc1)C(=O)O` [Melphalan, melphalan], the CC50 was found to be 11 µM in series [2]; 14.1 µM in series [3]; 9.9 µM in [4]; 36.3 µM in series [9]; 17.8 µM in [10]. The CC50 at 2 days in series [5] is 180 µM; in series [6], greater than 200 µM; in [7], 159 µM; in series [8], greater than 180 µM. For the same compound, the “TS (tumor selectivity) C/A” value in series [9] (CC50 HGF / CC50 Ca9-22) turned out to be 5.0. In addition, in [10], the “Type of growth inhibition (cytotoxic or cytostatic) from dose-response curve” value (“Type of growth inhibition” below) is listed as “Cytotoxic”.
In the case of `O=c1[nH]cc(F)c(=O)[nH]1` [5-FU, 5-fluorouracil], the CC50 is 292 µM in [2] (MTT, 2 days exposure); greater than 1000 µM in [3] (MTT, 2 days exposure); 182 µM in series [4] (MTT, 2 days exposure); 69.4 µM in [9]; greater than 386 µM in series [10]. The CC50 at 2 days in [5], in series [6], in series [7] and in [8] was greater than 1000 µM each time. In addition, the “Type of growth inhibition” value in series [10] is “Cytostatic”.
On to `COc1cccc2c1C(=O)c1c(O)c3c(c(O)c1C2=O)C[C@@](O)(C(=O)CO)C[C@@H]3O[C@H]1C[C@H](N)[C@H](O)[C@H](C)O1` [Doxorubicin, doxorubicin], for which the cytotoxic concentration (CC50) in [2] (MTT, 2 days exposure) is 0.09 µM; in [3] (MTT, 2 days exposure) it was 0.16 µM; in series [4] (MTT, 2 days exposure) it was less than 0.078 µM; in series [9], 0.18 µM; in series [10], less than 0.13 µM. Moreover, the CC50 at 2 days in series [5], in series [6], in [7] and in series [8] was greater than 10 µM throughout. Besides, in series [10], the “Type of growth inhibition” value was “Cytotoxic”.

A word on the CC50: it is the concentration giving 50% cytotoxicity.
